Data as given in ChEMBL document CHEMBL1124789, “Angiotensin-converting enzyme inhibitors. 9. Novel [[N-(1-carboxy-3-phenylpropyl)amino]acyl]glycine derivatives with diuretic activity” (J Med Chem, 1990).

Experiments:
[1] = biological target: T1, Angiotensin-converting enzyme (Rattus norvegicus, UniProt P47820); experiment: In vitro inhibitory activity against Angiotensin I converting enzyme(ACE)
T1 sequence (P47820 whole entry): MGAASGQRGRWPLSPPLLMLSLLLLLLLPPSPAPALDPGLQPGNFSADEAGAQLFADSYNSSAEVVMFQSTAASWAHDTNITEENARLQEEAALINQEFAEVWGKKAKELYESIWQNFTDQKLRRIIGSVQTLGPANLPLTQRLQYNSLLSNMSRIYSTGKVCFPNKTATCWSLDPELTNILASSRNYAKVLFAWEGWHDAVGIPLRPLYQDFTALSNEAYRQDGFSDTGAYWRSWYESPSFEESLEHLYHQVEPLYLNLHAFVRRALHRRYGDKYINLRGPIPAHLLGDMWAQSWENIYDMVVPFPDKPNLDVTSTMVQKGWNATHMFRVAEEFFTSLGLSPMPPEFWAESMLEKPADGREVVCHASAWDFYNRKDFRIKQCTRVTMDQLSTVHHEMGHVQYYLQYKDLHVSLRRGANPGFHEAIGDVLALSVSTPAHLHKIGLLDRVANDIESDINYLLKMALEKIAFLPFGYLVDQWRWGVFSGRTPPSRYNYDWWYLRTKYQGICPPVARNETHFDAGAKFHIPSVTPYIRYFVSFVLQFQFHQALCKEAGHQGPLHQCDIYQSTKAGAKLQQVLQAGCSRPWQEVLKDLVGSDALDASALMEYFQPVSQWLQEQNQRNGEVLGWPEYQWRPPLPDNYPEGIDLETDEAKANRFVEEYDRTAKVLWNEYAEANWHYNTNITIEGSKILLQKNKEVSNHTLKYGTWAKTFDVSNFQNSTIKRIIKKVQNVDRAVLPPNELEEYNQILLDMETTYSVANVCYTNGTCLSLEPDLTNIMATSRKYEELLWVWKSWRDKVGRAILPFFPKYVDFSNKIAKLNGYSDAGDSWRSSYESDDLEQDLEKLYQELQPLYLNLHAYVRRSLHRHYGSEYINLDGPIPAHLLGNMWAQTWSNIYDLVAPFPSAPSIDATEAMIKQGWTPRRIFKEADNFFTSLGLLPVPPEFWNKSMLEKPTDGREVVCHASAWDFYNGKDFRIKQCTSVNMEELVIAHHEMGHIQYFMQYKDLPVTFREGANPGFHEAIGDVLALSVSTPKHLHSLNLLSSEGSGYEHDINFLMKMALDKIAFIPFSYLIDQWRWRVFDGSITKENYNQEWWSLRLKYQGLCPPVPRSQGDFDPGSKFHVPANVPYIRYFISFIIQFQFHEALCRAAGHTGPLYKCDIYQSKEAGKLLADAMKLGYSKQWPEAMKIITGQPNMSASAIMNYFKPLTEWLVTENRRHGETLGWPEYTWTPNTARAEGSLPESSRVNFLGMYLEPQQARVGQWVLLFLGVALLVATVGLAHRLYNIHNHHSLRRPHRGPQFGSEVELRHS

[2] = biological target: T2, Angiotensin-converting enzyme (Rattus norvegicus) (UniProt P47820); experiment: Inhibition of Angiotensin I converting enzyme(ACE) at the dose of 30 mg/kg (po) in rat; type: organism-based; set-up: dose 30 mg/kg
T2 sequence (whole entry): T1 sequence (P47820 whole entry)

[3] = biological target: T2, Angiotensin-converting enzyme (Rattus norvegicus); experiment: Inhibition of Angiotensin I converting enzyme(ACE) at the dose of 100 mg/kg (po) in rat; type: organism-based; set-up: dose 100 mg/kg
Rattus norvegicus [4] = species: Rattus norvegicus; experiment: Duration of action on ACE in rat; type: functional
Rattus norvegicus [5] = experiment: Diuretic activity (ip);ND- Natriuresis and diuresis; type: functional, organism-based; conditions: Urine
Rattus norvegicus [6] = experiment: Diuretic activity (po); NI-No Increase; type: functional, organism-based; conditions: Urine
[7] = biological target: T2, Angiotensin-converting enzyme (Rattus norvegicus); experiment: Inhibition of Angiotensin I converting enzyme(ACE) at the dose of 30 mg/kg (ip) in rat; type: organism-based; set-up: dose 30 mg/kg; scale not given: the % may be the effect or the level left
[8] = biological target: Angiotensin-converting enzyme (Homo sapiens) (UniProt P12821); experiment: Inhibition of Angiotensin I converting enzyme(ACE) at the dose of 100 mg/kg (ip) in dog; type: organism-based; set-up: dose 100 mg/kg; conditions: Canis lupus familiaris; target entry is the homologue from another species
Canis familiaris [9] = experiment: Maximum percent decrease in blood pressure at the dose of 100 mg/kg ip; type: functional, Canis lupus familiaris; conditions: route intraperitoneal
[10] = biological target: T2, Angiotensin-converting enzyme (Rattus norvegicus); experiment: Inhibition of Angiotensin I converting enzyme(ACE) at the dose of 100 mg/kg (ip) in rat; type: organism-based; set-up: dose 100 mg/kg
[11] = biological target: T2, Angiotensin-converting enzyme (Rattus norvegicus); experiment: Inhibition of Angiotensin I converting enzyme(ACE) at the dose of 10 mg/kg (po) in rat; type: organism-based; set-up: dose 10 mg/kg
Canis familiaris [12] = experiment: Diuretic activity (po) in dog; ND-Natriuresis&diuresis; type: functional, organism-based; conditions: Canis lupus familiaris; Urine
Rattus norvegicus [13] = experiment: Diuretic activity (po);ND- Natriuresis and diuresis; type: functional, organism-based; conditions: Urine
[14] = biological target: Angiotensin-converting enzyme (Homo sapiens) (UniProt P12821); experiment: In vitro inhibitory activity against Angiotensin I converting enzyme(ACE) in dog; conditions: Canis lupus familiaris; target entry is the homologue from another species; concentration not given here
Rattus norvegicus [15] = experiment: Diuretic activity (po); ND-Natriuresis&diuresis; type: functional, organism-based; conditions: Urine
Canis familiaris [16] = experiment: Diuretic activity (po) in dog; ND- Natriuresis and diuresis; type: functional, organism-based; conditions: Canis lupus familiaris; Urine
Rattus norvegicus [17] = experiment: Diuretic activity (ip); NI-No Increase; type: functional, organism-based; conditions: Urine
[18] = biological target: T1, Angiotensin-converting enzyme; experiment: (§1) In vitro inhibitory activity against Angiotensin I converting enzyme (ACE)
Rattus norvegicus [19] = experiment: Diuretic activity (ip);NI-No increase; type: functional, organism-based; conditions: Urine
Rattus norvegicus [20] = experiment: Diuretic activity (po); N-Natriuresis; type: functional, organism-based; conditions: Urine
[21] = biological target: T2, Angiotensin-converting enzyme (Rattus norvegicus); experiment: as §1; conditions: concentration not given here
[22] = biological target: T2, Angiotensin-converting enzyme (Rattus norvegicus); experiment: Inhibition of Angiotensin I converting enzyme(ACE) at the dose of 10 mg/kg (ip) in rat; type: organism-based; set-up: dose 10 mg/kg; scale not given: the % may be the effect or the level left
Rattus norvegicus [23] = experiment: Diuretic activity (po);NI- No increase; type: functional, organism-based; conditions: Urine

Angiotensin-converting enzyme (Homo sapiens), sequence (P12821 whole entry): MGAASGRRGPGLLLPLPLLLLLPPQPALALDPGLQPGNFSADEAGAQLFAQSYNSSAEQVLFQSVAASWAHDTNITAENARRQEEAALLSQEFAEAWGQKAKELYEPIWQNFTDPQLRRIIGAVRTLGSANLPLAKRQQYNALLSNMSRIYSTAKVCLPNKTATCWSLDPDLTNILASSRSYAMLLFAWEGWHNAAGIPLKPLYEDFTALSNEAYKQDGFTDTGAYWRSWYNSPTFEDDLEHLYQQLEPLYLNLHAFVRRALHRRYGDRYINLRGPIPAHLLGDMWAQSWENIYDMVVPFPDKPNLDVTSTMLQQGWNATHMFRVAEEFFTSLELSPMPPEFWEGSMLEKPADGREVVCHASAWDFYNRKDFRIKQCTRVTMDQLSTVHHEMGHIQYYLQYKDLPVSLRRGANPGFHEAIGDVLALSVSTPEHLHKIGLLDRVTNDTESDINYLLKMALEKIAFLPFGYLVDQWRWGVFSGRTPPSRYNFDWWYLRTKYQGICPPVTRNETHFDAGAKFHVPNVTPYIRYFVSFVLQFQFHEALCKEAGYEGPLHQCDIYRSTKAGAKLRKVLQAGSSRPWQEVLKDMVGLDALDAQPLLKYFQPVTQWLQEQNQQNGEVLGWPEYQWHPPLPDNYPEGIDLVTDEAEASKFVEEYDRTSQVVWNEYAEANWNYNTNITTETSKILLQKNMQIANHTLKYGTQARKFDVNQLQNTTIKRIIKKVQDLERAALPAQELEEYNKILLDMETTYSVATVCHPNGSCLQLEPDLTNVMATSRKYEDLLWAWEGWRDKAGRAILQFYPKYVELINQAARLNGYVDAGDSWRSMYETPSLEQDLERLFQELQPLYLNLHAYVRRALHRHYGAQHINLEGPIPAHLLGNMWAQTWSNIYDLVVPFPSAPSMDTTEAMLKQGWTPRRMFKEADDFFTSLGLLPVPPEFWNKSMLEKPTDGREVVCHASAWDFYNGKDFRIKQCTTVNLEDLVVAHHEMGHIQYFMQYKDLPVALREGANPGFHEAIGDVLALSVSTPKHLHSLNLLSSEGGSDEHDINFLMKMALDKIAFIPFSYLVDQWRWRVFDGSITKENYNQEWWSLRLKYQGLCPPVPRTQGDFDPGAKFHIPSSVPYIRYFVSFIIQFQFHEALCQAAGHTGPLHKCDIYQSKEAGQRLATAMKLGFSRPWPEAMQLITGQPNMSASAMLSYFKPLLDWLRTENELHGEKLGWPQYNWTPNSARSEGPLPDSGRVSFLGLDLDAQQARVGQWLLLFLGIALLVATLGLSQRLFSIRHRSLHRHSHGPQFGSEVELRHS

SMILES	IC50 [1] [nM]	ACE inhibition [2] [%]	ACE inhibition [3] [%]	ACE inhibition [10] [%]	ACE inhibition [11] [%]	Duration (Rattus norvegicus [4]) [h]	further results
Br.C[C@H](N[C@@H](CCc1ccccc1)C(=O)O)C(=O)N(C1CCC2(CC1)Nc1cc(Cl)c(S(N)(=O)=O)cc1S(=O)(=O)N2)C(CCCCN)C(=O)O (stereo not given in full)	95000		50			<1	Activity (Rattus norvegicus [5]): Natriuresis and diuresis
CCOC(=O)C(CCc1ccccc1)N[C@@H](C)C(=O)N(C1Cc2ccccc2C1)[C@H](CCCCNC(=O)c1ccc(Cl)c(S(N)(=O)=O)c1)C(=O)O.Cl (stereo not given in full)			50	50		3	Activity (Rattus norvegicus [5]): Natriuresis and diuresis
CCOC(=O)[C@H](CCc1ccccc1)N[C@@H](C)C(=O)N(CC(=O)O)Cc1cc(C(C)(C)C)cc(I)c1O	80000		< 30	80			Activity (Rattus norvegicus [17]): No increase
C[C@H](N[C@@H](CCc1ccccc1)C(=O)O)C(=O)N(CCCNC(=O)c1ccc(Cl)c(S(N)(=O)=O)c1)CC(=O)O							IC50 [18]: 38000 nM; Activity (Rattus norvegicus [19]): No increase
CCOC(=O)[C@H](CCc1ccccc1)N[C@@H](C)C(=O)N(CC(=O)O)[C@H](CC(C)C)C1Nc2cc(Cl)c(S(N)(=O)=O)cc2S(=O)(=O)N1.Cl (stereo not given in full)					< 30	<1	inhibition [21]: < 20%; Activity [22]: 50%; Activity (Rattus norvegicus [23]): No increase

The remaining molecules from weak to strong by IC50 [1], led by results:

IC50 [1] [nM]	ACE inhibition [2] [%]	ACE inhibition [3] [%]	ACE inhibition [10] [%]	ACE inhibition [11] [%]	SMILES	Duration (Rattus norvegicus [4]) [h]	further results
3500		80			C[C@H](N[C@@H](CCc1ccccc1)C(=O)O)C(=O)N(CC(=O)O)C1CCC2(CC1)Nc1cc(Cl)c(S(N)(=O)=O)cc1S(=O)(=O)N2 (stereo not given in full)	3	
2700	< 30	80			C[C@H](N[C@@H](CCc1ccccc1)C(=O)O)C(=O)N(CC(=O)O)[C@H](C)C1Nc2cc(Cl)c(S(N)(=O)=O)cc2S(=O)(=O)N1 (stereo not given in full)	3	
2400				80	C[C@H](N[C@@H](CCc1ccccc1)C(=O)O)C(=O)N(Cc1ccccc1)[C@H](CCCCNc1cc(Cl)c(C(=O)O)cc1S(N)(=O)=O)C(=O)O.Cl	0	Activity (Rattus norvegicus [20]): N
680	50				C[C@H](N[C@@H](CCc1ccccc1)C(=O)O)C(=O)N(Cc1ccccc1)[C@H](CCCCNc1cc(Cl)c(S(N)(=O)=O)cc1C(=O)O)C(=O)O.Cl	<1	Activity (Rattus norvegicus [6]): No increase; Activity [7]: < 30%
230	50	100	100	50	C[C@H](N[C@@H](CCc1ccccc1)C(=O)O)C(=O)N(CCCC1Nc2cc(Cl)c(S(N)(=O)=O)cc2S(=O)(=O)N1)CC(=O)O.Cl (stereo not given in full)	> 3	inhibition [8]: > 100%; Decrease (Canis familiaris [9]): 14%; Activity (Canis familiaris [12]): Natriuresis and diuresis; Activity (Rattus norvegicus [13]): Natriuresis and diuresis
220	80	100	100	80	Cl.NCCCC[C@H](N[C@@H](CCc1ccccc1)C(=O)O)C(=O)N(CC(=O)O)CC1Nc2cc(Cl)c(S(N)(=O)=O)cc2S(=O)(=O)N1 (stereo not given in full)	3	Decrease (Canis familiaris [9]): 0%; inhibition [14]: 100%; Activity (Rattus norvegicus [15]): Natriuresis and diuresis; Activity (Canis familiaris [16]): Natriuresis and diuresis
